Tests used:
MDCK-MDR1 cells = conditions: transport with versus without verapamil
P-glycoprotein (P-gp) = conditions: cited from earlier work
[1] = tested on: MCF7 breast cancer cell line; experiment: Antiproliferation assay; assay type: cell-based
[2] = intravenous or inhaled administration; cited from earlier work

Cn1c(=O)c2c(ncn2C)n(C)c1=O [caffeine]
efflux by P-gp (in words) (MDCK-MDR1 cells): limited efflux by P-gp

COC(=O)[C@@H]1C[C@H](OC(C)=O)C(=O)[C@H]2[C@@]1(C)CC[C@H]1C(=O)O[C@H](c3ccoc3)C[C@]21C [Salvinorin A, salvinorin A]
P-glycoprotein substrate (in words) (P-glycoprotein (P-gp)): substrate for P-glycoprotein
antiproliferative effects (in words) [1]: did not show any detectable antiproliferative effects
time to cross the blood–brain barrier [2]: ≤ 1 min
efflux by P-gp (in words) (MDCK-MDR1 cells): actively effluxed by P-gp

COc1cc2nc(N3CCN(C(=O)c4ccco4)CC3)nc(N)c2cc1OC [prazosin]
efflux by P-gp (in words) (MDCK-MDR1 cells): actively effluxed by P-gp

COC(=O)[C@@H]1C[C@H](OC(C)=O)C(=O)[C@H]2[C@@]1(C)CC[C@H]1C(=O)O[C@H](CC3=CC(=O)C(OC)=C(OC)C3=O)C[C@]21C [Compound 14, (2S,4aR,6aR,7R,9S,10aS,10bR)-Methyl 9-Acetoxy-2-[(4,5-dimethoxy-3,6-dioxocyclohexa-1,4-dien-1-yl)methyl]-6a,10b-dimethyl-4,10-dioxododecahydro-1H-benzo[f]isochromene-7-carboxylate]
efflux by P-gp (in words) (MDCK-MDR1 cells): actively effluxed by P-gp

COC(=O)[C@@H]1C[C@H](OC(C)=O)C(=O)[C@H]2[C@@]1(C)CC[C@H]1C(=O)O[C@H](CC3=CC(=O)C(OC)=CC3=O)C[C@]21C [Compound 15, (2S,4aR,6aR,7R,9S,10aS,10bR)-Methyl 9-Acetoxy-2-[(4-methoxy-3,6-dioxocyclohexa-1,4-dien-1-yl)methyl]-6a,10b-dimethyl-4,10-dioxododecahydro-1H-benzo[f]isochromene-7-carboxylate]
efflux by P-gp (in words) (MDCK-MDR1 cells): actively effluxed by P-gp

— article PMC4143179 (Journal of Natural Products, 2014)
